Measurements reported in patent US6525001B1, “Substituted pyrimidine and pyridine herbicides” (Mid-American Commercialization Corporation, priority 1997, dated 2003).

How the values were obtained:
Format in all cases: in vivo
Parameters in all cases: key: 0 is no effect; 10 is complete control
rice (Oryza sativa) = test: Test B flood test
Method in brief: (§1)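 Flood test on plants grown to the 2-leaf stage; treated plants kept in greenhouse twelve to sixteen days, then visually rated against controls on a 0 (no effect) to 10 (complete control) scale.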

[1] = system: bamyardgrass (Echinochloa crus-galli); test: Test B flood test
Method in brief: as §1

[2] = system: duck salad (Heteranthera limosa); test: Test B flood test
Method in brief: as §1

[3] = system: smallflower flatsedge (Cyperus difformis); test: Test B flood test
Method in brief: as §1

[4] = system: bedstraw (Galium aparine); test: Test B pre-/postemergence; settings: for Bedstraw plant response rating: Preemergence
Method in brief: (§2)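 Scored visually 0 (none) to 10 (complete control) against untreated plants after twelve to sixteen greenhouse days. Test chemicals, formulated in surfactant-containing non-phytotoxic solvent, applied to soil after planting and, separately, onto 1- to 4-leaf (2–18 cm) plants.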

[5] = system: broadleaf signalgrass (Brachiaria decumbens); test: Test B pre-/postemergence; settings: for B. signalgrass plant response rating: Preemergence
Method in brief: as §2

[6] = system: crabgrass (Digitaria sanguinalis); test: Test B pre-/postemergence; settings: for Crabgrass plant response rating: Preemergence
Method in brief: as §2

wild oat (Avena fatua) = test: Test B pre-/postemergence
Method in brief: as §2

[7] = system: giant foxtail (Setaria faberii); test: Test B pre-/postemergence
Method in brief: as §2

[8] = system: sugar beet (Beta vulgaris); test: Test B pre-/postemergence
Method in brief: as §2

[9] = system: momingglory (Ipomoea hederacea); test: Test B pre-/postemergence
Method in brief: as §2

[10] = system: velvetleaf (Abutilon theophrasti); test: Test B pre-/postemergence
Method in brief: as §2

soybean (Glycine max) = test: Test B pre-/postemergence
Method in brief: as §2

[11] = system: blackgrass (Alopecurus myosuroides); test: Test B pre-/postemergence; settings: for Blackgrass plant response rating: Preemergence
Method in brief: as §2

[12] = system: wheat (Triticum aestivum); test: Test B pre-/postemergence
Method in brief: as §2

[13] = system: pigweed (Amaranthus retroflexus); test: Test B pre-/postemergence
Method in brief: as §2

corn (Zea mays) = test: Test B pre-/postemergence; settings: for Corn plant response rating: Preemergence
Method in brief: as §2

[14] = system: purple nutsedge (Cyperus rotundus); test: Test B pre-/postemergence
Method in brief: as §2

rape (Brassica napus) = test: Test B pre-/postemergence
Method in brief: as §2

[15] = system: cocklebur (Xanthium strumarium); test: Test B pre-/postemergence; settings: for Cocklebur plant response rating: Preemergence
Method in brief: as §2

[16] = Rate 62 g/ha, Postemergence (flood test)
[17] = Rate 125 g/ha, Postemergence section (flood test species)
[18] = Rate 250 g/ha, Postemergence (flood test species)
[19] = Rate 125 g/ha, Postemergence, flood test
[20] = Rate 250 g/ha, Postemergence (so in the source)

`Cc1cnc(-c2ccc(F)cc2F)nc1Cc1cccc(C#N)c1` [Compound 34] was tested, and the “Plant response rating, Rice” value (rice (Oryza sativa); [16]) was 1, the “Rice plant response rating” value (rice (Oryza sativa); [17]) was 1 and the “Plant response rating, Rice” value (rice (Oryza sativa); [18]) was 1. The “Plant response rating, Barnyardgrass” value [1, 16] was 0, the “Plant response rating, Barnyardgrass” value [1, 19] was 0 and the “Plant response rating, Barnyardgrass” value [1, 18] was 1. For the same molecule, the “Plant response rating, Ducksalad” value [2, 16] was 0, the “Plant response rating, Ducksalad” value [2, 19] was 0 and the “Plant response rating, Ducksalad” value [2, 18] was 0. For the same molecule, the “Plant response rating, S. Flatsedge” value [3, 16] was 2, the “S. Flatsedge plant response rating” value [3, 17] was 2 and the “Plant response rating, S. Flatsedge” value [3, 18] was 3. For the same molecule, the “Plant response rating, Bedstraw” value ([4]; Rate 62 g/ha, Postemergence) was 2, the “Bedstraw plant response rating” value ([4]; Rate 62 g/ha) was 0 and the “Plant response rating, Bedstraw” value ([4]; Rate 125 g/ha, Postemergence) was 3. For the same molecule, the “Bedstraw plant response rating” value ([4]; Rate 125 g/ha) was 0, the “Plant response rating, Bedstraw” value ([4]; Rate 250 g/ha, Postemergence) was 7 and the “Plant response rating, Bedstraw” value [4, 20] was 0. For the same molecule, the “Plant response rating, B. signalgrass” value ([5]; Rate 62 g/ha, Postemergence) was 1, the “B. signalgrass plant response rating” value ([5]; Rate 62 g/ha) was 0 and the “Plant response rating, B. signalgrass” value ([5]; Rate 125 g/ha, Postemergence) was 1. The “B. signalgrass plant response rating” value ([5]; Rate 125 g/ha) was 0, the “Plant response rating, B. signalgrass” value ([5]; Rate 250 g/ha, Postemergence) was 1 and the “Plant response rating, B. signalgrass” value ([5]; Rate 250 g/ha, Postemergence as printed in head r139 (second section for compounds 26-50)) was 1. The “Plant response rating, Crabgrass” value ([6]; Rate 62 g/ha, Postemergence) was 0, the “Crabgrass plant response rating” value ([6]; Rate 62 g/ha) was 0 and the “Plant response rating, Crabgrass” value ([6]; Rate 125 g/ha, Postemergence) was 1. The “Crabgrass plant response rating” value ([6]; Rate 125 g/ha) was 0, the “Plant response rating, Crabgrass” value ([6]; Rate 250 g/ha, Postemergence) was 1 and the “Plant response rating, Crabgrass” value [6, 20] was 1. For the same molecule, the “Wild oats plant response rating” value (wild oat (Avena fatua); Rate 62 g/ha, Postemergence) was 0, the “Wild oats plant response rating” value (wild oat (Avena fatua); Rate 62 g/ha, Preemergence) was 0 and the “Wild oats plant response rating” value (wild oat (Avena fatua); Rate 125 g/ha, Postemergence) was 1. The “Plant response rating, Wild oats” value (wild oat (Avena fatua); Rate 125 g/ha, Preemergence) was 0, the “Plant response rating, Wild oats” value (wild oat (Avena fatua); Rate 250 g/ha, Postemergence) was 2 and the “Plant response rating, Wild oats” value (wild oat (Avena fatua); [20]) was 0. For the same molecule, the “Plant response rating, Giant foxtail” value ([7]; Rate 62 g/ha, Postemergence) was 0, the “Giant foxtail plant response rating” value ([7]; Rate 62 g/ha, Preemergence) was 0 and the “Giant foxtail plant response rating” value ([7]; Rate 125 g/ha, Postemergence) was 1. The “Giant foxtail plant response rating” value ([7]; Rate 125 g/ha, Preemergence) was 0, the “Plant response rating, Giant foxtail” value ([7]; Rate 250 g/ha, Postemergence) was 1 and the “Plant response rating, Giant foxtail” value [7, 20] was 1. For the same molecule, the “Plant response rating, Sugarbeets” value ([8]; Rate 62 g/ha, Postemergence) was 8, the “Sugarbeets plant response rating” value ([8]; Rate 62 g/ha, Preemergence) was 0 and the “Sugarbeets plant response rating” value ([8]; Rate 125 g/ha, Postemergence) was 8. For the same molecule, the “Plant response rating, Sugarbeets” value ([8]; Rate 125 g/ha, Preemergence) was 0, the “Plant response rating, Sugarbeets” value ([8]; Rate 250 g/ha, Postemergence) was 9 and the “Plant response rating, Sugarbeets” value [8, 20] was 0. The “Plant response rating, Morningglory” value ([9]; Rate 62 g/ha, Postemergence) was 1, the “Morningglory plant response rating” value ([9]; Rate 62 g/ha, Preemergence) was 0 and the “Morningglory plant response rating” value ([9]; Rate 125 g/ha, Postemergence) was 1. For the same molecule, the “Morningglory plant response rating” value ([9]; Rate 125 g/ha, Preemergence) was 0, the “Plant response rating, Morningglory” value ([9]; Rate 250 g/ha, Postemergence) was 2 and the “Plant response rating, Morningglory” value [9, 20] was 0. For the same molecule, the “Plant response rating, Velvetleaf” value ([10]; Rate 62 g/ha, Postemergence) was 1, the “Velvetleaf plant response rating” value ([10]; Rate 62 g/ha, Preemergence) was 0 and the “Velvetleaf plant response rating” value ([10]; Rate 125 g/ha, Postemergence) was 1. The “Plant response rating, Velvetleaf” value ([10]; Rate 125 g/ha, Preemergence) was 0, the “Plant response rating, Velvetleaf” value ([10]; Rate 250 g/ha, Postemergence) was 1 and the “Plant response rating, Velvetleaf” value [10, 20] was 0. The “Plant response rating, Soybean” value (soybean (Glycine max); Rate 62 g/ha, Postemergence) was 1, the “Soybean plant response rating” value (soybean (Glycine max); Rate 62 g/ha, Preemergence) was 0 and the “Soybean plant response rating” value (soybean (Glycine max); Rate 125 g/ha, Postemergence) was 2. For the same molecule, the “Plant response rating, Soybean” value (soybean (Glycine max); Rate 125 g/ha, Preemergence) was 0, the “Plant response rating, Soybean” value (soybean (Glycine max); Rate 250 g/ha, Postemergence) was 2 and the “Plant response rating, Soybean” value (soybean (Glycine max); [20]) was 0. For the same molecule, the “Plant response rating, Blackgrass” value ([11]; Rate 62 g/ha, Postemergence) was 0, the “Blackgrass plant response rating” value ([11]; Rate 62 g/ha) was 0 and the “Plant response rating, Blackgrass” value ([11]; Rate 125 g/ha, Postemergence) was 1. For the same molecule, the “Blackgrass plant response rating” value ([11]; Rate 125 g/ha) was 0, the “Plant response rating, Blackgrass” value ([11]; Rate 250 g/ha, Postemergence) was 1 and the “Plant response rating, Blackgrass” value [11, 20] was 0. For the same molecule, the “Wheat plant response rating” value ([12]; Rate 62 g/ha, Postemergence) was 0, the “Wheat plant response rating” value ([12]; Rate 62 g/ha, Preemergence) was 0 and the “Wheat plant response rating” value ([12]; Rate 125 g/ha, Postemergence) was 1. For the same molecule, the “Plant response rating, Wheat” value ([12]; Rate 125 g/ha, Preemergence) was 0, the “Plant response rating, Wheat” value ([12]; Rate 250 g/ha, Postemergence) was 1 and the “Plant response rating, Wheat” value [12, 20] was 0. The “Plant response rating, Redroot pigweed” value ([13]; Rate 62 g/ha, Postemergence) was 1, the “Redroot pigweed plant response rating” value ([13]; Rate 62 g/ha, Preemergence) was 0 and the “Redroot pigweed plant response rating” value ([13]; Rate 125 g/ha, Postemergence) was 3. The “Redroot pigweed plant response rating” value ([13]; Rate 125 g/ha, Preemergence) was 0, the “Plant response rating, Redroot pigweed” value ([13]; Rate 250 g/ha, Postemergence) was 6 and the “Plant response rating, Redroot pigweed” value [13, 20] was 2. For the same molecule, the “Plant response rating, Corn” value (corn (Zea mays); Rate 62 g/ha, Postemergence) was 1, the “Corn plant response rating” value (corn (Zea mays); Rate 62 g/ha) was 0 and the “Plant response rating, Corn” value (corn (Zea mays); Rate 125 g/ha, Postemergence) was 1. The “Corn plant response rating” value (corn (Zea mays); Rate 125 g/ha) was 0, the “Plant response rating, Corn” value (corn (Zea mays); Rate 250 g/ha, Postemergence) was 1 and the “Plant response rating, Corn” value (corn (Zea mays); [20]) was 0. For the same molecule, the “Plant response rating, Nutsedge” value ([14]; Rate 62 g/ha, Postemergence) was 0, the “Nutsedge plant response rating” value ([14]; Rate 62 g/ha, Preemergence) was 0 and the “Nutsedge plant response rating” value ([14]; Rate 125 g/ha, Postemergence) was 0. The “Nutsedge plant response rating” value ([14]; Rate 125 g/ha, Preemergence) was 0, the “Plant response rating, Nutsedge” value ([14]; Rate 250 g/ha, Postemergence) was 0 and the “Plant response rating, Nutsedge” value [14, 20] was 0. The “Plant response rating, Rape” value (rape (Brassica napus); Rate 62 g/ha, Postemergence) was 2, the “Rape plant response rating” value (rape (Brassica napus); Rate 62 g/ha, Preemergence) was 0 and the “Rape plant response rating” value (rape (Brassica napus); Rate 125 g/ha, Postemergence) was 3. The “Rape plant response rating” value (rape (Brassica napus); Rate 125 g/ha, Preemergence) was 0, the “Plant response rating, Rape” value (rape (Brassica napus); Rate 250 g/ha, Postemergence) was 3 and the “Plant response rating, Rape” value (rape (Brassica napus); [20]) was 0. For the same molecule, the “Plant response rating, Cocklebur” value ([15]; Rate 62 g/ha, Postemergence) was 2, the “Cocklebur plant response rating” value ([15]; Rate 62 g/ha) was 0 and the “Plant response rating, Cocklebur” value ([15]; Rate 125 g/ha, Postemergence) was 2. The “Cocklebur plant response rating” value ([15]; Rate 125 g/ha) was 0, the “Plant response rating, Cocklebur” value ([15]; Rate 250 g/ha, Postemergence) was 8 and the “Plant response rating, Cocklebur” value [15, 20] was 0.
